Test results as given in patent US20060167021A1, “Inhibition of src for treatment of reperfusion injury related to revascularization” (Caritas St. Elizabeth's Medical Center of Boston, Inc., priority 2002, published 2006).
Where “and” joins values, the source holds several entries; their conditions need not be identical. Equal values may be shown once.

Columns and labels:
Sprague-Dawley rats [1] = assay: Rat acute MI model (permanent LAD ligation), infarct size by Evans blue/TTC; type: in vivo
Protocol: (§1) Generally, myocardial Infarction (MI) was induced by ligating the left anterior descending (LAD) coronary artery in Sprague-Dawley rats or in C57 black mice. Intraperitoneal injections of the inhibitors were delivered after the induction of infarction. High resolution magnetic resonance imaging (MRI), dry weight measurements, infarct size, heart volume and area at risk were determined 24 hours after induction of MI. Survival rates and echocardiography were determined at 4 weeks post-MI.
(§2) After 24 hours, 10% Evans blue (Sigma, St. Louis, Mo.) was injected intravenously before sacrifice. Hearts were removed and cut in three equivalent sections distal to the occluding LAD suture and one proximal. The distal sections were digitized to evaluate the nonperfused area at risk using NIH Image software. Sections were stained with 2% triphenyltetrazolium chloride ([…]) (Sigma, St. Louis, Mo.) to delineate ischemic area. Infarct size is presented as the percentage of area at risk to eliminate variability. For example, the area at risk (AAR) is measured as a function of (white+red area)/(blue+white+red area); the % infarct is measured as a function of (white area (% of LV area))/(blue+white+red area); and the % infarct/AAR is calculated as a function of (white area (% of AAR))/(white+red area).
Essentially, MI was induced in rats as described above. […] Control rats were mock-treated with the dimethylsulfoxide (DMSO) vehicle. Tests were performed 24 hours post-MI induction.
To study the kinetics of this response, PP1 was administered at various times following occlusion. Essentially, MI was induced in rats as described above. […] Control rats were mock-treated with the dimethylsulfoxide (DMSO) vehicle. Tests were performed 24 hours post-MI induction.

C57 black mice = assay: Mouse MI model (permanent occlusion), infarct size; type: in vivo
Protocol: as §1, §2

Sprague-Dawley rats [2] = assay: Ex-vivo myocardial water content (wet/dry weights); type: in vivo, rat
Protocol: (§3) In-vivo water content was evaluated using MRI performed serially on anesthetized rats 24 hours following MI using a 4.7-T MR scanner (Bruker Billerica Mass.). […] MRI experiments to quantify T2 values of the myocardium were conducted by applying an ECG and respiratory-triggered multiecho spin echo sequence (number of echoes, 8; echo time, 6.6 ms; slice thickness, 1.0 mm; inplane resolution, 430 μm^2; total slices, 6-7). The trigger delay was chosen to capture all echoes during full diastole to avoid motion artifact between echoes. Corresponding gradient echo images were also acquired for each slice to clearly delineate the blood/myocardium border for region of interest evaluation of the spin echo sequence. Because of their increased water content, edematous regions are expected to have a longer T2 relaxation than nonedematous regions. Regions with T2>40 ms (two standard deviations above the mean of normally perfused myocardium) were delineated and the volume calculated as a percentage of the total LV myocardial volume. In addition, ex-vivo myocardial water content of proximal heart sections was measured as the percentage difference between initial wet and dry weights after 24 hours incubation at 80° C. Transthoracic echocardiography (SONOS 5500, Agilent Technologies, Palo Alto, Calif.) was performed to evaluate LV function before (baseline) and 4 weeks after MI. For this analysis, rats were anesthetized with 0.6 ml/kg ketamine intraperitoneally.
Rats were treated with 0.5 mg/kg, 1.5 mg/kg, or a placebo post-MI induction and the myocardial water content was compared.

Sprague-Dawley rats [3] = assay: In-vivo MRI T2 mapping of edematous myocardium; design: species or system rat
Excerpt: Because of their increased water content edematous regions are expected to have a longer 72 relaxation than nonedematous regions. As a result, T2 maps of the myocardium can be used as an index of water content. Regions with T2>40 ms (two standard deviations above normally perfused myocardium) were delineated as an index of edema.
Because of their increased water content, edematous regions are expected to have a longer T2 relaxation than nonedematous regions and therefore T2 maps of the myocardium can be used as an index of water content. Regions with T2>40 ms (two standard deviations above normally perfused myocardium) were delineated as an index of edema.

Sprague-Dawley rats [4] = assay: Echocardiography 4 weeks post-MI; type: in vivo, rat
Protocol: as §3
MI was induced in rats as described above. […] Tests were performed 24 hours post-MI induction. Four weeks post-MI, fraction shortening was assessed by echocardiography.

Sprague-Dawley rats [5] = assay: Rat ischemia/reperfusion model (echocardiography, Evan's blue & TTC staining at 24 hours); type: in vivo; design: LVDd / LVDs / AAR: unit not given beside the values
Protocol: as §2, §3
To establish whether Src inhibition is beneficial following transient ischemia, rats were subjected to occlusion followed by reperfusion, and then evaluated for ventricular function and infarct size after 24 hours. […] Subjects were evaluated with echocardiography (FIGS. 13 and 18) and TTC staining (FIGS. 14 and 18) 24 hours after occlusion (Table 7).

mouse cardiac tissue = assay: Ultrastructural analysis of cardiac tissue by electron microscopy after MI; type: in vivo; conditions: 1.5 mg/kg 45 minutes following occlusion
Protocol: Cardiac tissue was prepared from mice following VEGF injection or 3-24 hours following ischemia and the infarct, the peri-infarct, and remote regions were sectioned. Tissue was fixed in 0.1 M sodium cacodylate buffer (pH 7.3) containing 4% paraformaldehyde+1.5% glutaraldehyde for 2 hours, transferred to 5% glutaraldehyde overnight, then 1% osmium tetroxide for 1 hour. Blocks were washed, dehydrated, cleared in propylene oxide, infiltrated with Epon/Araldite, and embedded in resin. Ultrathin sections were stained with uranyl acetate and lead citrate, and viewed using a Philips CM-100 transmission electron microscope.

[6] = tested on: Flk-cadherin-catenin complex; assay: In vivo permeability model: immunoprecipitation/immunoblotting after VEGF injection; conditions: mice pretreated before VEGF injection; FIG. 20D
Protocol: At the appropriate time, the heart was rapidly excised and homogenized in 3 ml RIPA lysis buffer as previously described (Eliceiri et al. Mol. Cell 4: 915-924 (1999)) and the protein concentration measured (BCA Protein Assay; Pierce, Rockford, Ill.).
Tissue lysates were prepared for immunoprecipitation and immunoblotting as previously described (Eliceiri et al. Mol. Cell 4: 915-924 (1999)) with antibodies from Santa Cruz Biotechnology (Santa Cruz, Calif.): Flk (sc315), VE-cadherin (sc6458), β-catenin (sc7963), and P-Tyrosine (sc7020 or sc508). Representative data from at least three separate experiments is shown.
(Data is representative of at least three experiments.)
Heart lysates prepared from animals injected with or without VEGF were subjected to immunoprecipitation with anti-Flk followed by immunoblotting for VE-cadherin and β-catenin. In control mice, a pre-existing complex between Flk, β-catenin, and VE-cadherin in blood vessels was observed. This complex was rapidly disrupted within 2-5 minutes following VEGF stimulation, and had reassembled by 15 minutes in blood vessels in vivo. The timescale of complex dissociation completely paralleled that of Flk, β-catenin, and VE-cadherin phosphorylation and the dissociation of β-catenin from VE-cadherin.

VEGF = assay: Immunohistochemistry for VEGF in hearts 24 hours after MI; type: in vivo, rat; conditions: 24 hours after induction of MI; FIGS. 2A and 2B
Protocol: FIGS. 2A and 2B show the results of an immunohistochemistry assay for VEGF on rat heart samples 24 hours after induction of myocardial infarction, with VEGF+ and ischemic regions indicated.

mice = conditions: mouse, in vivo; cited from earlier work
[7] = tested on: 2-year-old C57 black mice; assay: Survival after MI in 2-year-old mice
Protocol: 2-year-old C57/ByJ mice were used as a model of severe MI to test the effects of Src inhibition on survival. […] Adult male Sprague-Dawley rats (Harlan, Indianapolis, Ind.) and C57/ByJ mice (Jackson Laboratory, Bar Harbor, Me.) were maintained under approved protocols.
MI was induced in mice. […] Survival rates were assessed.
To evaluate survival after MI, 2-year-old C57 black mice were used as a model characterized by considerable mortality (>40%) after LAD ligation.

CML cells = conditions: cited from earlier work
[8] = tested on: Src family kinases Lyn and/or Hck; conditions: cited from earlier work
[9] = individual rat, 1.5 mg/kg i.p., 24 hours after occlusion, 1.5 mg/kg
[10] = individual rat, Table 8, listed as Src-I
[11] = individual rat, Table 8, MRI, listed as Src-I

SMILES: Cc1ccc(-c2nn(C(C)(C)C)c3ncnc(N)c23)cc1 [PP1]
- maximum inhibition in infarct size (Sprague-Dawley rats [1]; 1.5 mg/kg i.p. 45 minutes after MI induction, 24 hours post-MI, FIG. 5): 68%
- cardiac tissue 24 hours after induction of MI (Sprague-Dawley rats [1]; FIG. 1A vs 1B): cardioprotection
- smaller infarct size (maximum benefit) (Sprague-Dawley rats [1]; additional experiments, administration 45 minutes following occlusion, FIG. 17): 50%
- edema and infarct size, dose dependence (Sprague-Dawley rats [1]; additional experiments, maximum decrease at 1.5 mg/kg, FIGS. 15 and 16): dose-dependent decreases in edema and infarct size
- protection (infarct size) (Sprague-Dawley rats [1]; additional experiments, treatment after 6 hours, FIG. 17): 25%
- decrease in infarct size (Sprague-Dawley rats [1]; given six hours after LAD ligation, FIG. 7): 42%
- decrease in infarct size following permanent occlusion (Sprague-Dawley rats [1]; permanent occlusion, quoted for comparison with ischemia-reperfusion): 50%
- infarct size following permanent occlusion (Sprague-Dawley rats [1]; rat): significant reduction of infarct size
- infarct size following permanent occlusion (C57 black mice): significant reduction of infarct size
- decreased myocardial water content (Sprague-Dawley rats [2]; permanent MI, FIG. 8): 5%+/−1.3
- LV volumes with T2>40 ms versus vehicle treated rats (Sprague-Dawley rats [3]; 24 hours following permanent LAD occlusion, n=2, FIGS. 22A and 22B): a difference between LV volumes with T2>40 ms
- fractional shortening assessed by echocardiography (Sprague-Dawley rats [4]; 4 weeks post-MI, 1.5 mg/kg i.p., FIG. 11): 33.7%
- favorable effect on regional wall motion (Sprague-Dawley rats [4]; over 4 weeks, n=8): 9%
- favorable effect on systolic LV diameter (Sprague-Dawley rats [4]; over 4 weeks, n=8): 16%
- preservation of diastolic left ventricular diameter compared with untreated rats (Sprague-Dawley rats [4]; over 4 weeks, n=8): 11%
- preservation of fractional shortening compared with untreated rats (Sprague-Dawley rats [4]; over 4 weeks, n=8 each group): 46%
- % FS (echocardiography), group mean (Sprague-Dawley rats [5]; 1.5 mg/kg i.p., n=4, 24 hours): 30.6±3.16%
- % infarct/AAR, group mean (Sprague-Dawley rats [5]; 1.5 mg/kg i.p., n=4, 24 hours): 42.4±3.72 % of AAR
- Area at risk, group mean (Sprague-Dawley rats [5]; 1.5 mg/kg i.p., n=4, 24 hours): 36.1±9.61
- RWMS (echocardiography), group mean (Sprague-Dawley rats [5]; 1.5 mg/kg i.p., n=4, 24 hours): 18.5±0.58
- reduction in infarct size following ischemia-reperfusion (Sprague-Dawley rats [5]; FIG. 14): 18%
- % FS (Sprague-Dawley rats [5]; [9]): 34.9% and 28.7% and 27.8% and 30.9%
- AAR (Sprague-Dawley rats [5]; [9]): 32.9 and 27.2 and 34.4 and 49.7
- IA/AAR (Sprague-Dawley rats [5]; [9]): 42.1 and 42.4 and 47 and 37.9
- LVDd (Sprague-Dawley rats [5]; [9]): 0.729 and 0.737 and 0.877 and 0.797
- LVDs (Sprague-Dawley rats [5]; [9]): 0.475 and 0.525 and 0.633 and 0.551
- RWMS (Sprague-Dawley rats [5]; [9]): 18 (2×) and 19 (2×)
- vascular gaps (ultrastructure) (mouse cardiac tissue): did prevent vascular gaps
- Cardiac Damage (observations counted) (mouse cardiac tissue; 3 hr MI): 2
- EC Injury (observations counted) (mouse cardiac tissue; 3 hr MI): 14
- Platelet Activation & Adhesion (observations counted) (mouse cardiac tissue; 3 hr MI): 11
- EC Barrier Dysfunction (observations counted) (mouse cardiac tissue; 3 hr MI, approximately 250 microvessels): 2
- Cardiac Damage (observations counted) (mouse cardiac tissue; 24 hr MI): 9
- EC Barrier Dysfunction (observations counted) (mouse cardiac tissue; 24 hr MI): 0
- EC Injury (observations counted) (mouse cardiac tissue; 24 hr MI): 15
- Platelet Activation & Adhesion (observations counted) (mouse cardiac tissue; 24 hr MI): 1
- myocyte injury (ultrastructure) (mouse cardiac tissue; at 24 hours): significant reduction in myocyte injury
- Flk-cadherin-catenin complex after VEGF injection [6]: remains intact
- VEGF expression in the ischemic tissues (VEGF): did not interfere with VEGF expression
- ischemia and brain damage after stroke (mice): reduce ischemia and brain damage after stroke
- survival within the first 4 weeks ([7]; 1.5 mg/kg 45 minutes post-MI, n=12 each group): 91.7%
- four-week survival rate ([7]; 1.5 mg/kg, FIG. 10): 100%

SMILES: COc1cc(Nc2c(C#N)cnc3cc(OCCCN4CCN(C)CC4)c(OC)cc23)c(Cl)cc1Cl [SKI-606]
- Water Content, group mean (Sprague-Dawley rats [2]; SKI-606 study, Example 9): 76.7±2.01
- % water (Sprague-Dawley rats [2]; [10]): 78% and 74.4% and 74.1% and 79.1% and 78.7% and 76.6% and 75.8%
- MRI % T2>35, group mean (Sprague-Dawley rats [3]; SKI-606 study, Example 9): 18.4±8.85%
- (%) T2 > 35 (Sprague-Dawley rats [3]; [11]): 27.518% and 13.699% and 13.287% and 28.257% and 9.198%
- (%) T2 > 40 (Sprague-Dawley rats [3]; [11]): 17.955% and 5.743% and 7.537% and 19.466% and 5.719%
- T2 > 40 (Sprague-Dawley rats [3]; individual rat, Table 9 summary, listed as Src-I): 19.466 and 5.719 and 17.955 and 5.743 and 7.537
- decrease in infarct size in the ischemia-reperfusion model (Sprague-Dawley rats [5]; 5 mg/kg, FIG. 19): 43%
- % infarct/AAR, group mean (Sprague-Dawley rats [5]; SKI-606 study, Example 9): 54.8±2.45 % of AAR
- Area at risk, group mean (Sprague-Dawley rats [5]; SKI-606 study, Example 9): 37.9±2.76
- RWMS (echocardiography), group mean (Sprague-Dawley rats [5]; SKI-606 study, Example 9): 21.3±1.25
- fractional shortening and regional wall motion score (Sprague-Dawley rats [5]; after 24 hours, n=7 each group): favorably impacted fractional shortening and regional wall motion score
- % FS (Sprague-Dawley rats [5]; [10]): 21.6%
- AAR (Sprague-Dawley rats [5]; [10]): 38.6 and 35.2 and 36.7 and 42.3 and 36.5
- Dd (Sprague-Dawley rats [5]; [10]): 0.873 and 0.881 and 0.703 and 0.805 and 0.865 and 0.669 and 0.89
- Ds (Sprague-Dawley rats [5]; [10]): 0.661 and 0.669 (3×) and 0.619 and 0.678 and 0.513
- IA/AAR (Sprague-Dawley rats [5]; [10]): 58.6 and 55.5 and 54.5 and 52.4 and 53
- RW MS (Sprague-Dawley rats [5]; [10]): 20 (2×) and 21 (3×) and 23 (2×)
- antiproliferative activity against CML cells in culture (CML cells): potent antiproliferative activity
- phosphorylation of the autoactivation site of Lyn and/or Hck [8]: reduces phosphorylation
